Laboratory results from US20230011652A1, “COMPOUNDS AND COMPOSITIONS FOR TREATING CONDITIONS ASSOCIATED WITH NLRP ACTIVITY” (Novartis AG, priority 2018, published 2023).

system: IL-1β production in PMA-differentiated THP-1 cells; assay: IL-1β production in PMA-differentiated THP-1 cells stimulated with gramicidin (hTHP-1 assay, 2% fetal bovine serum); format: cell-based; conditions: Homo sapiens, Table 2, hTHP-1 assay containing 2% fetal bovine serum, average, read-out: hTHP-1 IC50 (Average IC50 of compounds in hTHP-1 assay)
Description: Procedure 1: IL-1β production in PMA-differentiated THP-1 cells stimulated with Gramicidin.
THP-1 cells were purchased from the American Type Culture Collection and sub-cultured according to instructions from the supplier. Prior to experiments, cells were cultured in complete RPMI 1640 (containing 10% heat inactivated FBS, penicillin (100 units/ml) and streptomycin (100 μg/ml)), and maintained in log phase prior to experimental setup. Prior to the experiment THP-1 were treated with PMA (Phorbol 12-myristate 13-acetate) (20 ng/ml) for 16-18 hours. Compounds were dissolved in dimethyl sulfoxide (DMSO) to generate a 30 mM stock. On the day of the experiment the media was removed and adherent cells were detached with trypsin for 5 minutes. Cells were then harvested, washed with complete RPMI 1640, spun down, resuspended in RPMI 1640 (containing 2% heat inactivated FBS, penicillin (100 units/ml) and streptomycin (100 μg/ml). The cells were plated in a 384-well plate at a density of 50,000 cells/well (final assay volume 50 μl). Compounds were first dissolved in assay medium to obtain a 5× top concentration of 500 μM. 10 step dilutions (1:3) were then undertaken in assay medium containing 1.67% DMSO. 5× compound solutions were added to the culture medium to achieve desired final concentration (e.g. 100, 33, 11, 3.7, 1.2, 0.41, 0.14, 0.046, 0.015, 0.0051, 0.0017 μM). Final DMSO concentration was at 0.37%. Cells were incubated with compounds for 1 hour and then stimulated with gramicidin (5 μM) (Enzo) for 2 hours. Plates were then centrifuged at 340 g for 5 min. Cell free supernatant (40 μL) was collected using a 96-channel PlateMaster (Gilson) and the production of IL-1β was evaluated by HTRF (cisbio). A vehicle only control and a dose titration of CRID3 (100-0.0017 μM) were run concurrently with each experiment. Data was normalized to vehicle-treated samples (equivalent to 0% inhibition) and CRID3 at 100 μM (equivalent to 100% inhibition).
(§1) 1.1 Cell Culture • 1) Culture THP-1 cells in the complete RPMI-1640 medium with 10% FBS at 37° C., 5% CO2. • 2) Passage the cells every 3 days by inoculating 3×10^5 cells per ml.
(§2) 1.2 Compound Preparation • Prepare the 3-fold serial dilution of the compounds with DMSO in a 384-well LDV Microplate using TECAN EVO system to generate the compound source plate with 10 concentrations. Top concentration is 30 mM.
(§3) 1.3 Cell Preparation • 1) Centrifuge THP-1 cells at 350 g for 5 min. • 2) Re-suspend cells with complete RMPI-1640 medium, and count cells. • 3) Seed cells in T225 flask, about 2.5×10^7 per flask, treat cells with 20 ng/ml PMA (final DMSO concentration<1%). • 4) Incubate overnight.
1.4 THP-1 Stimulation • 1) Wash adherent THP-1 cells with PBS, and detach cells with 4 ml trypsin for T225 flask. • 2) Centrifuge cells at 350 g for 5 min, re-suspend cells with RPMI-1640 containing 2% FBS and count cells with trypan blue. • 3) Transfer 50 nl/well the serial dilution of test compound to 384-well plate by Echo; For the high control and first point of CRID3 (MCC950), transfer 165 nl, then backfill to make the DMSO concentration is consistent in all wells, the plate layout is as below. • 4) Seed 50k cells in 40 ul RPMI-1640 with 2% FBS per well in 384-well plate. • 5) Incubate for 1 h at 37′C, 5% CO2. • 6) Prepare 5× gramicidin, add 10 μl per well, the final concentration is 5 μM, incubate for 2 hrs at 37° C., 5% CO2. • 7) Centrifuge at 350 g for 1 min. • 8) Pipet 16 μl supernatant by apricot, and transfer into white 384 proxiplate. FIG. 3 depicts the layout of the plates: HC: 100 μM CRID3 (MCC950)+5 μM gramicidin LC: 5 μM Gramicidin.
1.5 IL-1β detection • 1) Homogenize the 5× diluent #5 with a vortex and add 1 volume of stock solution in 4 volumes of distilled water. • 2) Thaw 20× stock solution of anti-IL1β-Cryptate-antibody and anti-IL1β XL-antibody. […]

Row | Structure (SMILES) | IC50
1 | CN[C@H]1COc2c(S(=O)(=O)NC(=O)Nc3c4c(cc5c3CC5)CCC4)cnn2C1 [Compound 401, (R)-6-(methylamino)-N-((2,4,5,6-tetrahydro-1H-cyclobuta[f]inden-3-yl)carbamoyl)-6,7-dihydro-5H-pyrazolo[5,1-b][1,3]oxazine-3-sulfonamide] | < 8 nM
2 | O=C(Nc1c2c(cc3c1CCC3)CCC2)NS(=O)(=O)c1cnn2c1OC[C@H](OC(=O)Nc1c3c(cc4c1CCC4)CCC3)C2 [Compound 403, (R)-3-(N-((1,2,3,5,6,7-hexahydro-s-indacen-4-yl)carbamoyl)sulfamoyl)-6,7-dihydro-5H-pyrazolo[5,1-b][1,3]oxazin-6-yl (1,2,3,5,6,7-hexahydro-s-indacen-4-yl)carbamate] | 5000 to 30000 nM

Now from value to compound:

Row | IC50 | Structure (SMILES)
3 | 200 to 1000 nM | O=C(Nc1c2c(cc3c1CC3)CCC2)NS(=O)(=O)c1cnn2c1OCCC2 [Compound 8, N-((2,4,5,6-tetrahydro-1H-cyclobuta[f]inden-3-yl)carbamoyl)-6,7-dihydro-5H-pyrazolo[5,1-b][1,3]oxazine-3-sulfonamide]
4 | 40 to 200 nM | O=C(Nc1c2c(cc3c1CC3)CC2)NS(=O)(=O)c1cnn2c1OCCC2 [Compound 9, N-(tricyclo[6.2.0.03,6]deca-1,3(6),7-trien-2-ylcarbamoyl)-6,7-dihydro-5H-pyrazolo[5,1-b][1,3]oxazine-3-sulfonamide]
5 | 1000 to 5000 nM | O=C(Nc1cc2c(c3c1CCC3)CCC2)NS(=O)(=O)c1cnn2c1OCCC2 [Compound 10, N-((1,2,3,6,7,8-hexahydro-as-indacen-4-yl)carbamoyl)-6,7-dihydro-5H-pyrazolo[5,1-b][1,3]oxazine-3-sulfonamide]
6 | 200 to 1000 nM | O=C(Nc1c2c(nc3c1CCC3)CCC2)NS(=O)(=O)c1cnn2c1OCCC2 [Compound 12, Sodium ((6,7-dihydro-5H-pyrazolo[5,1-b][1,3]oxazin-3-yl)sulfonyl)((1,2,3,5,6,7-hexahydrodicyclopenta[b,e]pyridin-8-yl)carbamoyl)amide]
7 | 200 to 1000 nM | CC1CCc2c1nc1c(c2NC(=O)NS(=O)(=O)c2cnn3c2OCCC3)CCC1 (stereo not drawn) [Compound 13, Sodium ((6,7-dihydro-5H-pyrazolo[5,1-b][1,3]oxazin-3-yl)sulfonyl)((3-methyl-1,2,3,5,6,7-hexahydrodicyclopenta[b,e]pyridin-8-yl)carbamoyl)amide]
8 | 1000 to 5000 nM | CC1(C)CCc2c1nc1c(c2NC(=O)NS(=O)(=O)c2cnn3c2OCCC3)CCC1 [Compound 14]
9 | 1000 to 5000 nM | O=C(Nc1c2c(nc3c1CCC31CC1)CCC2)NS(=O)(=O)c1cnn2c1OCCC2 [Compound 15, Sodium ((6,7-dihydro-5H-pyrazolo[5,1-b][1,3]oxazin-3-yl)sulfonyl)((1′,5′,6′,7′-tetrahydro-2′H-spiro[cyclopropane-1,3′-dicyclopenta[b,e]pyridin]-8′-yl)carbamoyl)amide]
10 | 1000 to 5000 nM | Cc1c(C2CC2)nc2c(c1NC(=O)NS(=O)(=O)c1cnn3c1OCCC3)CCC2 [Compound 16, Sodium ((2-cyclopropyl-3-methyl-6,7-dihydro-5H-cyclopenta[b]pyridin-4-yl)carbamoyl)((6,7-dihydro-5H-pyrazolo[5,1-b][1,3]oxazin-3-yl)sulfonyl)amide]
11 | 40 to 200 nM | O=C(Nc1c2c(cc3c1CC3)CCC2)NS(=O)(=O)c1cnn2c1OC[C@H](O)C2 [Compound 402, (R)-6-hydroxy-N-((2,4,5,6-tetrahydro-1H-cyclobuta[f]inden-3-yl)carbamoyl)-6,7-dihydro-5H-pyrazolo[5,1-b][1,3]oxazine-3-sulfonamide]
12 | 200 to 1000 nM | C[C@@H]1CCc2c1nc1c(c2NC(=O)NS(=O)(=O)c2cnn3c2OCCC3)CCC1 [Compound 404]

same assay, conditions: Homo sapiens, Table 3, hTHP-1 assay containing 2% fetal bovine serum, average, read-out: hTHP-1 IC50 (Average IC50 of compounds in hTHP-1 assay)

Row | IC50 | Structure (SMILES)
13 | 40 to 200 nM | CC(C)(O)c1coc(S(=O)(=O)NC(=O)Nc2c3c(cc4c2CC4)CCC3)c1 [Compound 301, 4-(2-Hydroxypropan-2-yl)-N-((2,4,5,6-tetrahydro-1H-cyclobuta[f]inden-3-yl)carbamoyl)furan-2-sulfonamide]
14 | 1000 to 5000 nM | CC(C)n1ccc(S(=O)(=O)NC(=O)Nc2c3c(cc4c2CC4)CCC3)n1 [Compound 302, 1-Isopropyl-N-((2,4,5,6-tetrahydro-1H-cyclobuta[f]inden-3-yl)carbamoyl)-1H-pyrazole-3-sulfonamide]

system: IL-1β production in PMA-differentiated THP-1 cells; assay: hTHP-1 assay containing 10% fetal bovine serum (IL-1β production, gramicidin stimulation); format: cell-based; conditions: Homo sapiens, Table 4, average, read-out: hTHP-1 IC50 in 10% FBS (Average IC50 of compounds in hTHP-1 assay)
Description: as §1, §2, §3
FIG. 3 depicts the layout of the plates: HC: 100 μM CRID3 (MCC950)+5 μM gramicidin LC: 5 μM Gramicidin.
1.5 IL-1β detection • 1) Homogenize the 5× diluent #5 with a vortex and add 1 volume of stock solution in 4 volumes of distilled water. • 2) Thaw 20× stock solution of anti-IL1β-Cryptate-antibody and anti-IL1β XL-antibody. Dilute these two antibodies to 1× with detection buffer #3. • 3) Pre-mix the two ready-to-use antibody solutions just prior to use. • 4) Dispense 4 ul of pre-mixed Anti-IL1β antibodies working solution into all wells. • 5) Seal the plate and incubate overnight at 4° C. • 6) Read the cell plate using EnVison and plot Readout vs. the test compound concentration to calculate the IC50.
• 1. IC50 of compounds can be calculated using the following formulas
% inhibition=100−100×[HCave−Readout/(HCave−LCave)] Formula for IC50 • 2. Fit the normalized data in a dose-response manner using XLfit, and calculate the compound concentration.

Row | IC50 | Structure (SMILES)
15 | 200 to 1000 nM | CCn1cc(F)c(S(=O)(=O)NC(=O)Nc2c3c(cc4c2CCC4)CCC3)n1 [Example 16, 1-Ethyl-4-fluoro-N-((1,2,3,5,6,7-hexahydro-s-indacen-4-yl)carbamoyl)-1H-pyrazole-3-sulfonamide]
16 | 1000 to 5000 nM | CCn1ccc(S(=O)(=O)NC(=O)Nc2c3c(cc4c2CCC4)CCC3)n1 [Example 17, 1-Ethyl-N-((1,2,3,5,6,7-hexahydro-s-indacen-4-yl)carbamoyl)-1H-pyrazole-3-sulfonamide]
17 | 200 to 1000 nM | CCn1cc(F)c(S(=O)(=O)NC(=O)Nc2c3c(cc4c2CC4)CCC3)n1 [Example 18, 1-Ethyl-4-fluoro-N-((2,4,5,6-tetrahydro-1H-cyclobuta[f]inden-3-yl)carbamoyl)-1H-pyrazole-3-sulfonamide]
18 | 200 to 1000 nM | CCn1ccc(S(=O)(=O)NC(=O)Nc2c3c(cc4c2CC4)CCC3)n1 [Example 19, 1-Ethyl-N-((2,4,5,6-tetrahydro-1H-cyclobuta[f]inden-3-yl)carbamoyl)-1H-pyrazole-3-sulfonamide]
